Data reported in the supplement of paper PMC12463676, “Small-molecule dissolution of stress granules by redox modulation benefits ALS models” (Nature Chemical Biology, 2025).

Experiments:
lipoamide = compound: NC(=O)CCCCC1CCSS1 [lipoamide]; test: thermal stability z-score vs DMSO; higher = more thermally stabilized by treatment; conditions: HeLa, lipoamide concentration 100 µM
Method: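 Cellular thermal proteome profiling in HeLa cells. Cells were treated with 100 µM lipoamide for 1 h, with or without 1 mM arsenate for a further 1 h, then heated to ten temperatures (37-66.3 °C), and soluble protein was quantified by TMT mass spectrometry relative to 0.1% DMSO controls. The thermal stability score (sum of log2 fold changes minus the abundance score) was transformed to a z-score; mean of n = 3 experiments.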

potassium arsenate = compound: O=[As]([O-])(O)O.[K+] [potassium arsenate]; test: as above; conditions: HeLa; arsenate concentration 1 mM
Method: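 Cellular thermal proteome profiling in HeLa cells treated with 1 mM arsenate for 1 h (DMSO pretreatment), heated to ten temperatures (37-66.3 °C). Soluble protein was quantified by TMT mass spectrometry relative to DMSO controls; the thermal stability score was transformed to a z-score; mean of n = 3 experiments.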

[1] = arsenate co-treatment: 1 mM arsenate 1 h
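Note: each temperature applied for 3 min, abundance score taken as mean log2 fold change at the two lowest temperatures, z-score obtained by mean subtraction and division by SD.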

Sequence of UniProt Q96NL8 (Q96NL8 whole entry): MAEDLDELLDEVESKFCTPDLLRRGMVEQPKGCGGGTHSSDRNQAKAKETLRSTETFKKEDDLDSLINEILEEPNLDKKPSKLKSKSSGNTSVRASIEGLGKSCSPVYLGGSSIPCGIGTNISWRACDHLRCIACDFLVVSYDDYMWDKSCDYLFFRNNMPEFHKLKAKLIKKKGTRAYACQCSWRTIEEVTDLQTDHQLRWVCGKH
Sequence of UniProt Q5VZL5 (Q5VZL5 whole entry): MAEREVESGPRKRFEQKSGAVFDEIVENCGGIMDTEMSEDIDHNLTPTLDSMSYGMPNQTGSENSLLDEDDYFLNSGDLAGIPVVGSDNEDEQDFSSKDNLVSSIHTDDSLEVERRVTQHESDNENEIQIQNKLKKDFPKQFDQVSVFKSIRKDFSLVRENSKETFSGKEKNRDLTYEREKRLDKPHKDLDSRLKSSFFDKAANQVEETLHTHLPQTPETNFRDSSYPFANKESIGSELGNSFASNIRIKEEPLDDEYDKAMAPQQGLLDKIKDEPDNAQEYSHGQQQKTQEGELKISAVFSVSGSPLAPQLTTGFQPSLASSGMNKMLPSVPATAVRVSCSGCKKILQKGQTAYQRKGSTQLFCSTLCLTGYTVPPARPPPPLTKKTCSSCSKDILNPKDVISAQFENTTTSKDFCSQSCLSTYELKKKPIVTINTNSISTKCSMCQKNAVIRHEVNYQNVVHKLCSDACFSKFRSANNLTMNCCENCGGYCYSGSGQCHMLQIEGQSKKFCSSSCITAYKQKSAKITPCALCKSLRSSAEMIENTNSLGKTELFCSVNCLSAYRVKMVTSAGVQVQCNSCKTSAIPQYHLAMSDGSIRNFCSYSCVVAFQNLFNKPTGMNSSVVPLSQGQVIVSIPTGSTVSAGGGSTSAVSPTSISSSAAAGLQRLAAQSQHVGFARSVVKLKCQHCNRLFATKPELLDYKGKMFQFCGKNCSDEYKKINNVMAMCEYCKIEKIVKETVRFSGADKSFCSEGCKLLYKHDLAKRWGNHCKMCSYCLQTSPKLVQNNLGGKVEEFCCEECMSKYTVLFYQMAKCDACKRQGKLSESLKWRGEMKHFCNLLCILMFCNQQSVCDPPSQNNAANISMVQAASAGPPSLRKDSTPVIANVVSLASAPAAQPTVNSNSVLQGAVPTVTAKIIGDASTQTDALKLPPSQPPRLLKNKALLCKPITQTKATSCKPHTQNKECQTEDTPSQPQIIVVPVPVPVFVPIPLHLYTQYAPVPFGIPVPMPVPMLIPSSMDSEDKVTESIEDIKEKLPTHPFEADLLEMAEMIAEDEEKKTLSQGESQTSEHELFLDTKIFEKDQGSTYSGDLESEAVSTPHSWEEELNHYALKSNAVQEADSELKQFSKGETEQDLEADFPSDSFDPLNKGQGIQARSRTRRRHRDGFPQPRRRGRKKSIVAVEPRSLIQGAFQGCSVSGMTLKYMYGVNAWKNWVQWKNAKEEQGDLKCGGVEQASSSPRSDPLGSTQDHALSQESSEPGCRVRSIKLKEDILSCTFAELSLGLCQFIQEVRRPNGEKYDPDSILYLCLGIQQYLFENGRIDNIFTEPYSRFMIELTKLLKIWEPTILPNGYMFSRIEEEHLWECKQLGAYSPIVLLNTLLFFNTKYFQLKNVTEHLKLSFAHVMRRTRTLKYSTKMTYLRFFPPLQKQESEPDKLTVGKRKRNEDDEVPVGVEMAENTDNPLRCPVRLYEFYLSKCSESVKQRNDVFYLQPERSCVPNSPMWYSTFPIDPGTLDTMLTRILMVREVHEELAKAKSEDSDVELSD
Sequence of UniProt Q5TEU4 (Q5TEU4 whole entry): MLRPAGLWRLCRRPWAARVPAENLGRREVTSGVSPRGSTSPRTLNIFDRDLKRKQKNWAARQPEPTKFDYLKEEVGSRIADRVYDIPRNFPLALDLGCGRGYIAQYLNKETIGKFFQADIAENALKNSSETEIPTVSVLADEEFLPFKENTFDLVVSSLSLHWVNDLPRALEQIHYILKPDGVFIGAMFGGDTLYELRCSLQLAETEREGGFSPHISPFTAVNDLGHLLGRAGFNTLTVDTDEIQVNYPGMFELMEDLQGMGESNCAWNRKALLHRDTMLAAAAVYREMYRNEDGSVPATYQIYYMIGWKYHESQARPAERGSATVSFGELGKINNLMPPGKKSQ
Sequence of UniProt Q9HBH0 (Q9HBH0 whole entry): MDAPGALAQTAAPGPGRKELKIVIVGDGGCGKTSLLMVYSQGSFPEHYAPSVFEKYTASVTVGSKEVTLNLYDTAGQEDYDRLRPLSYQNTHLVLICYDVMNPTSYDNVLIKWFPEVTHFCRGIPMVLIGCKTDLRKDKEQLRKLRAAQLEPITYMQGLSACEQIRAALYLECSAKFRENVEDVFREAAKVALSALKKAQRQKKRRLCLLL
Sequence of UniProt P43487 (P43487 whole entry): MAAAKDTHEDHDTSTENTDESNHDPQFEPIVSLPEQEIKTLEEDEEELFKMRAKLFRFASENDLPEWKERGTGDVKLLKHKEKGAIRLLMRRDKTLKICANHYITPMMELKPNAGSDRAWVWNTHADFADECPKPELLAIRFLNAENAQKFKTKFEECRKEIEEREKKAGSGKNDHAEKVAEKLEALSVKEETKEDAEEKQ
Sequence of UniProt Q08257 (Q08257 whole entry): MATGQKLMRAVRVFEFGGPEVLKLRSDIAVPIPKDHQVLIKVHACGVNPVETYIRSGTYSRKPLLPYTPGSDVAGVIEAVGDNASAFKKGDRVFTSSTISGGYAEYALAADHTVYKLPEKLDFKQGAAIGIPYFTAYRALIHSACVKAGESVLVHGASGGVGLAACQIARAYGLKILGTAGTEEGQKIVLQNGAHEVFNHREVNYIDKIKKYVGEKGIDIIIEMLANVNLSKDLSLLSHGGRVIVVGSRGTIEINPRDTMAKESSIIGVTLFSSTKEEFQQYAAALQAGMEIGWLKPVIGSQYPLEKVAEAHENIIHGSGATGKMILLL
Sequence of UniProt O00116 (O00116 whole entry): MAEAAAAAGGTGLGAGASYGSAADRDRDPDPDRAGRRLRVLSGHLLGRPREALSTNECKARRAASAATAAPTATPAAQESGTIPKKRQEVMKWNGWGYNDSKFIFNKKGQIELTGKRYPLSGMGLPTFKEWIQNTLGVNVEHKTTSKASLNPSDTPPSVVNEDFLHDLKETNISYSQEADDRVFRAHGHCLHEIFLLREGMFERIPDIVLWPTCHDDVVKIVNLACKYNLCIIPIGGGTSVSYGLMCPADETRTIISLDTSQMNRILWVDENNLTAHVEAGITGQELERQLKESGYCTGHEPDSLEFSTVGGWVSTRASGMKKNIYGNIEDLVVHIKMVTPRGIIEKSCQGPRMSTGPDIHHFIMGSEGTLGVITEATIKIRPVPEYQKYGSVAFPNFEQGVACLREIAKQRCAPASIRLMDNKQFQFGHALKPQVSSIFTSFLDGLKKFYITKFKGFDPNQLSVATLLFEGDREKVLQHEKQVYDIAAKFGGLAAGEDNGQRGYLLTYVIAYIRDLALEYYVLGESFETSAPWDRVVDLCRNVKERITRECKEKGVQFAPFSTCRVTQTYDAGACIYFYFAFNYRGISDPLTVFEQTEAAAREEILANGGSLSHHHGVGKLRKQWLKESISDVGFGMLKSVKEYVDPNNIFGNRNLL
Sequence of UniProt Q969U7 (Q969U7 whole entry): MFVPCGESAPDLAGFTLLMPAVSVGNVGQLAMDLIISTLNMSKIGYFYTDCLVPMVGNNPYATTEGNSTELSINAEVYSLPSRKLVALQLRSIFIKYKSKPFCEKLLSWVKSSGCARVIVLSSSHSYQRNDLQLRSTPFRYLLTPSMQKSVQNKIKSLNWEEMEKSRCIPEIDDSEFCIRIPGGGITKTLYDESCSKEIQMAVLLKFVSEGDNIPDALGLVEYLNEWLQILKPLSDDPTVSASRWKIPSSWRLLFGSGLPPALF
Sequence of UniProt O14744 (O14744 whole entry): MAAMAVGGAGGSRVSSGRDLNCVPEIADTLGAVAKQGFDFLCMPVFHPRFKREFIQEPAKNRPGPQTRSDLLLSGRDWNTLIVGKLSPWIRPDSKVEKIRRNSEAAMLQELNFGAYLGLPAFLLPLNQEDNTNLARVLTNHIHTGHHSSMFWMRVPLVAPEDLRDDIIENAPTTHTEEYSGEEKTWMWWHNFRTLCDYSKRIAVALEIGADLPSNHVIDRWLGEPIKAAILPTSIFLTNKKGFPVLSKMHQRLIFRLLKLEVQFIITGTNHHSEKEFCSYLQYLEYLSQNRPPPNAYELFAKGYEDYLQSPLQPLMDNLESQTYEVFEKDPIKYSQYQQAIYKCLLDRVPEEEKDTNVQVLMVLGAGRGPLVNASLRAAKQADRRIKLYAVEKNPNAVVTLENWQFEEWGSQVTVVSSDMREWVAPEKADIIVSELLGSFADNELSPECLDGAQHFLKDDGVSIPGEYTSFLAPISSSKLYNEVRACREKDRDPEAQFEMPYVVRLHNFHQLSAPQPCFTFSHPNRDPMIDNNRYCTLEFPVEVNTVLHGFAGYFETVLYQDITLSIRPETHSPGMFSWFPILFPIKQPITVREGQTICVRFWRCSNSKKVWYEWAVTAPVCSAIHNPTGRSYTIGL
Sequence of UniProt Q96IP4 (Q96IP4 whole entry): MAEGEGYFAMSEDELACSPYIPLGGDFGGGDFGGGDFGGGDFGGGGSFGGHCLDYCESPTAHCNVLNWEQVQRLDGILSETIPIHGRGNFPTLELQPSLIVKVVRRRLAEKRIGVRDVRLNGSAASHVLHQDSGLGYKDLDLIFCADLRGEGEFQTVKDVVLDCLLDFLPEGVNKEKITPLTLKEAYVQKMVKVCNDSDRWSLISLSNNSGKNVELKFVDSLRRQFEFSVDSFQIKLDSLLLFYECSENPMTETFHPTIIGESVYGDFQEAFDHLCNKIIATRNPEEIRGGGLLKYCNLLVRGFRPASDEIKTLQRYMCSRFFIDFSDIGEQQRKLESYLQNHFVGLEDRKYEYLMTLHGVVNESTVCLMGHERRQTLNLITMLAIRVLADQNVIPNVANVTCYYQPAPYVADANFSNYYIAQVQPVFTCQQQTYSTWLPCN
Sequence of UniProt P60520 (P60520 whole entry): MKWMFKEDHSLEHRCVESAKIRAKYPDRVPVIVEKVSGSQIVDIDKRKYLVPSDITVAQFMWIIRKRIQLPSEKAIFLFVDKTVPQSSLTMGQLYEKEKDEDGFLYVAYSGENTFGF

Target	thermal stability z-score (lipoamide; [1])	thermal stability z-score (lipoamide; arsenate co-treatment: none)	thermal stability z-score (potassium arsenate)
NFU1 (UniProt Q9UMS0)	0.559	0.402	0.227
NUDC (UniProt Q9Y266)	0.104	0.205	0.573
CRYZ (UniProt Q08257)	0.232	0.229	0.207
RNF181 (UniProt Q9P0P0)	1.27	1.68	0.00117
DDX6 (UniProt P26196)	0.414	0.53	1.01
PLEKHA5 (UniProt Q9HAU0)	0.191	0.254	0.0794
BAT3|BAG6	-0.102	-0.0326	0.518
C8ORF37 (UniProt Q96NL8)	0.385	0.235	0.161
RANBP1 (UniProt P43487)	-0.127	0.319	0.475
MLKL (UniProt Q8NB16)	0.561	0.379	-1.45
BOP1 (UniProt Q14137)	-1.64	-0.108	0.0419
AGPS (UniProt O00116)	-1.96	-1.23	-0.854
RHOF (UniProt Q9HBH0)	0.288	0.301	0.478
GSS (UniProt P48637)	-0.2	-0.141	-0.183
FAM46A (UniProt Q96IP4)	-0.0743	0.0046	-0.0735
NDUFAF5 (UniProt Q5TEU4)	-0.066	-0.112	0.155
MYO5C (UniProt Q9NQX4)	0.173	0.236	0.0128
CASP1 (UniProt P29466)	-1.23	-0.846	-0.416

Target	thermal stability z-score (lipoamide; [1])	thermal stability z-score (lipoamide; arsenate co-treatment: none)	thermal stability z-score (potassium arsenate)
MRPL24 (UniProt Q96A35)	-0.411	-0.311	-0.261
TOLLIP (UniProt Q9H0E2)	0.239	0.158	-0.313
NUCB1 (UniProt Q02818)	-0.169	-0.102	-0.222
PSMG2 (UniProt Q969U7)	0.926	0.248	2.01
EIF3F (UniProt O00303)	-0.117	-0.0503	-0.156
SAT2 (UniProt Q96F10)	0.538	0.492	0.614
GABARAPL2 (UniProt P60520)	0.14	-0.266	0.209
POLR3D (UniProt P05423)	0.483	-0.501	-1.56
SCAF11 (UniProt Q99590)	1.24	0.982	-1.02
TUBA4A (UniProt P68366)	-0.0177	-0.502	-0.681
MRPS35 (UniProt P82673)	-0.663	-0.362	-0.0913
PRMT5 (UniProt O14744)	0.459	0.231	-0.408
ZMYM4 (UniProt Q5VZL5)	-0.347	0.0509	-0.646
NHP2 (UniProt Q9NX24)	-0.434	-0.739	-0.721
SESTD1 (UniProt Q86VW0)	0.202	0.128	0.352
LZTR1 (UniProt Q8N653)	-0.12	0.0373	-0.137
MRPL50 (UniProt Q8N5N7)	1.2	0.662	1.42
